Laboratory results published in US10392391B2 (Vertex Pharmaceuticals Incorporated, priority 2012, dated 2019).
Where two headings read alike, the source gives them in different places.

Biological target: ATR kinase (full-length ATR) (Homo sapiens (Human), UniProt Q13535)
Assay: ATR inhibition assay (radioactive-phosphate incorporation)
Assay type: biochemical
Outline: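 Radiometric 33P incorporation by 5 nM full-length ATR into 800 μM target peptide with 10 μM [γ-33P]ATP, in 50 mM Tris/HCl pH 7.5, 10 mM MgCl2, 1 mM DTT, 7% DMSO, 25° C. Compound pre-incubated 10 minutes; reaction stopped after 24 hours, captured on phosphocellulose. Ki(app) from non-linear regression of initial rates.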

[1] = Ki(app), 5 nM full-length ATR, 10 μM ATP, 25° C.

Sequence of ATR kinase (full-length ATR) (Q13535 whole entry): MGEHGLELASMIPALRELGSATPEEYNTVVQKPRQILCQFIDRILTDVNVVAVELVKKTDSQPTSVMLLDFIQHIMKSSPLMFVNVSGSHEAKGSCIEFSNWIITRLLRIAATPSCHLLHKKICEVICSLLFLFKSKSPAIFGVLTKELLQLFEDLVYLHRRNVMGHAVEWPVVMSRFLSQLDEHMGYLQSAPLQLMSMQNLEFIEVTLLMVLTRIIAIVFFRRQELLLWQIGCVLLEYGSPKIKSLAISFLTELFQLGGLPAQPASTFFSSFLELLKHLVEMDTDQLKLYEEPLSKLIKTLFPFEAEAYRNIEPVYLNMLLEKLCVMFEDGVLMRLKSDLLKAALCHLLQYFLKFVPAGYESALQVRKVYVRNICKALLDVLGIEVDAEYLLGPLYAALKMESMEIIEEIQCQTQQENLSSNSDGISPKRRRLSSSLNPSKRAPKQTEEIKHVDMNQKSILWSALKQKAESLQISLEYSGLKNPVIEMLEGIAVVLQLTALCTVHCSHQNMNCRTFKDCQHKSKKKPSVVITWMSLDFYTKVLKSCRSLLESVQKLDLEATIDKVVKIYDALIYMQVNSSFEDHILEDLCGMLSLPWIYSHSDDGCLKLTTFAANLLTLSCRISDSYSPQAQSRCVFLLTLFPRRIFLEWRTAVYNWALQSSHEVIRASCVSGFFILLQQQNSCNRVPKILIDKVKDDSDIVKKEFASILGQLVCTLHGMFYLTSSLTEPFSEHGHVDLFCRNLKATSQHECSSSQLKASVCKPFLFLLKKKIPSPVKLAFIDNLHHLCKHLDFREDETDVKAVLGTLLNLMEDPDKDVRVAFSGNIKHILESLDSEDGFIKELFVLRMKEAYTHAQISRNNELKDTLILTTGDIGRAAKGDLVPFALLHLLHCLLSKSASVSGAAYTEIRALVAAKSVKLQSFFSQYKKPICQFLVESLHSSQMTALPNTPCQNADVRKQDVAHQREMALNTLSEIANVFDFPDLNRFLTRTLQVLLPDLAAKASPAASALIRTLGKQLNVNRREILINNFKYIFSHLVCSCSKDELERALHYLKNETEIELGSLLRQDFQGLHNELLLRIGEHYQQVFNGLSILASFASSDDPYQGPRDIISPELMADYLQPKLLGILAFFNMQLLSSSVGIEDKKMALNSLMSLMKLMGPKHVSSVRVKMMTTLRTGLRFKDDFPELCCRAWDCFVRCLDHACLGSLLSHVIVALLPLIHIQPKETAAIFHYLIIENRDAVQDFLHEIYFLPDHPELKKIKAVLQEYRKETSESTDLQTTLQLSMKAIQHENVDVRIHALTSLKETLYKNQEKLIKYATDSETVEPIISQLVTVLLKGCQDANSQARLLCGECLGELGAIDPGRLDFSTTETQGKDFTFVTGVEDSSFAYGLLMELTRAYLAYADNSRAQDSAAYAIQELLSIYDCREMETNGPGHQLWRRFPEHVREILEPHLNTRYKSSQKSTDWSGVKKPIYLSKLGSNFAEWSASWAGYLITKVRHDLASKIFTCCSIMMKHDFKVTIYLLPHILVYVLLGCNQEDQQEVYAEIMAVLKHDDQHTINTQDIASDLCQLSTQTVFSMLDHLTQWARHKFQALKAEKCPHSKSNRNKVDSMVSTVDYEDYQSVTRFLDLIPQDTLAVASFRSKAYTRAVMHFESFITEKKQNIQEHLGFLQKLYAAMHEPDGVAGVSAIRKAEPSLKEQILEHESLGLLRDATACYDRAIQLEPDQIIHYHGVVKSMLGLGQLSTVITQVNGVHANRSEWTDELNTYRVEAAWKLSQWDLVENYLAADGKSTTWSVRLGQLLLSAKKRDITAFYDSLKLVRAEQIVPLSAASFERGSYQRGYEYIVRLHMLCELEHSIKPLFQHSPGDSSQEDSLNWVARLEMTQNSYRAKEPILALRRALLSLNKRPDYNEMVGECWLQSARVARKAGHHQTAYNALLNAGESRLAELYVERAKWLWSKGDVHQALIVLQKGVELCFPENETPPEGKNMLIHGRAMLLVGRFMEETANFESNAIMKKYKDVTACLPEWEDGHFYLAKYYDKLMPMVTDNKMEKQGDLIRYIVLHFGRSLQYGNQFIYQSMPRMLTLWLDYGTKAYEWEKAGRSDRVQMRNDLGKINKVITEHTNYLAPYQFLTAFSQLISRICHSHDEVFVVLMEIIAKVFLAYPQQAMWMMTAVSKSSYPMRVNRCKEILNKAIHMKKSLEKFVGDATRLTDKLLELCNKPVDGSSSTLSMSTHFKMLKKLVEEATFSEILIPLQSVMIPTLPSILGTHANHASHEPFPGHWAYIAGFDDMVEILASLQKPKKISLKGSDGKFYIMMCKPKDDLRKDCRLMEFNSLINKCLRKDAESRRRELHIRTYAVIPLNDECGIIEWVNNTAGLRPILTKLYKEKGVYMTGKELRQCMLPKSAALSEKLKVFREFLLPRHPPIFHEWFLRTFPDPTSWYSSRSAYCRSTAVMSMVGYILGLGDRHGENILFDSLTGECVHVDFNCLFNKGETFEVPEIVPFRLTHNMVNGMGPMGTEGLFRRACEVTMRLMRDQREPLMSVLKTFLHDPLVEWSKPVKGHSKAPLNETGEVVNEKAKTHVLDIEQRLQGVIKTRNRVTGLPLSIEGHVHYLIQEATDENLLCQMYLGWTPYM

Ki [1] [nM]	Ki [nM]	SMILES
10 to 1000		Nc1nn2cc(F)cnc2c1C(=O)Nc1cncc(F)c1N1CCN([C@H]2CCOC2)CC1 [I-N-125, (S)-2-amino-6-fluoro-N-(5-fluoro-4-(4-(tetrahydrofuran-3-yl)piperazin-1-yl)pyridin-3-yl)pyrazolo[1,5-a]pyrimidine-3-carboxamide]
10 to 1000		Nc1nn2cc(F)cnc2c1C(=O)Nc1cncc(F)c1OC1CCN(C2COC2)CC1 [I-O-91, 2-amino-6-fluoro-N-(5-fluoro-4-((1-(oxetan-3-yl)piperidin-4-yl)oxy)pyridin-3-yl)pyrazolo[1,5-a]pyrimidine-3-carboxamide]
10 to 1000		CCN1CCC(C(=O)N2CCN(c3c(F)cncc3NC(=O)c3c(N)nn4cc(F)cnc34)CC2)C1 (centres unmarked) [I-N-207, 2-amino-N-(4-(4-(1-ethylpyrrolidine-3-carbonyl)piperazin-1-yl)-5-fluoropyridin-3-yl)-6-fluoropyrazolo[1,5-a]pyrimidine-3-carboxamide]
10 to 1000		Nc1nn2cc(F)cnc2c1C(=O)Nc1cnccc1-n1cnc(C(F)(F)F)c1 [I-N-27, 2-amino-6-fluoro-N-(4-(4-(trifluoromethyl)-1H-imidazol-1-yl)pyridin-3-yl)pyrazolo[1,5-a]pyrimidine-3-carboxamide]
10 to 1000		Nc1nn2cc(Cl)cnc2c1C(=O)Nc1cnccc1N1CCC(N2CCn3cncc3C2)CC1 [I-N-101, 2-amino-6-chloro-N-(4-(4-(5,6-dihydroimidazo[1,5-a]pyrazin-7(81-1)-yl)piperidin-1-yl)pyridin-3-yl)pyrazolo[1,5-a]pyrimidine-3-carboxamide]
10 to 1000		CN1CCN(C(=O)c2cnc(-c3ccncc3NC(=O)c3c(N)nn4cc(F)cnc34)c(Cl)c2)CC1 [I-C-46, 2-amino-N-(3-chloro-5-(4-methylpiperazine-1-carbonyl)-[2,4′-bipyridin]-3′-yl)-6-fluoropyrazolo[1,5-a]pyrimidine-3-carboxamide]
10 to 1000		Nc1nn2cc(F)cnc2c1C(=O)Nc1cnccc1-c1ccccn1 [I-C-60, N-([2,4′-bipyridin]-3′-yl)-2-amino-6-fluoropyrazolo[1,5-a]pyrimidine-3-carboxamide]
10 to 1000		Nc1nn2cc(F)cnc2c1C(=O)Nc1cncc(F)c1N1CCC(C(=O)N2CCN(C3CCC3)CC2)CC1 [I-G-35, 2-amino-N-(4-(4-(4-cyclobutylpiperazine-1-carbonyl)piperidin-1-yl)-5-fluoropyridin-3-yl)-6-fluoropyrazolo[1,5-a]pyrimidine-3-carboxamide]
10 to 1000		Nc1nn2cc(F)cnc2c1C(=O)Nc1cncc(F)c1N1CCC(C(=O)NCCN2CCC2)CC1 [I-G-42, 2-amino-N-(4-(4-((2-(azetidin-1-yl)ethyl)carbamoyl)piperidin-1-yl)-5-fluoropyridin-3-yl)-6-fluoropyrazolo[1,5-a]pyrimidine-3-carboxamide]
10 to 1000		Nc1nn2cc(F)cnc2c1C(=O)Nc1cnccc1N1CCC(c2nnco2)CC1 [I-N-268, N-(4-(4-(1,3,4-oxadiazol-2-yl)piperidin-1-yl)pyridin-3-yl)-2-amino-6-fluoropyrazolo[1,5-a]pyrimidine-3-carboxamide]
10 to 1000		CN1CCC(Oc2c(F)cncc2NC(=O)c2c(N)nn3cc(F)cnc23)CC1 [I-O-89, 2-amino-6-fluoro-N-(5-fluoro-4-((1-methylpiperidin-4-yl)oxy)pyridin-3-yl)pyrazolo[1,5-a]pyrimidine-3-carboxamide]
10 to 1000		Nc1nn2cc(F)cnc2c1C(=O)Nc1cncc(F)c1N1CCC(C(=O)N2CC(F)(F)C2)CC1 [I-G-73, 2-amino-N-(4-(4-(3,3-difluoroazetidine-1-carbonyl)piperidin-1-yl)-5-fluoropyridin-3-yl)-6-fluoropyrazolo[1,5-a]pyrimidine-3-carboxamide]
	1000 to 5000	CN1CCN(c2cc(Cl)ncc2NC(=O)c2c(N)nn3cc(Cl)cnc23)CC1 [I-N-52, 2-amino-6-chloro-N-(6-chloro-4-(4-methylpiperazin-1-yl)pyridin-3-yl)pyrazolo[1,5-a]pyrimidine-3-carboxamide]
10 to 1000		Nc1nn2cc(F)cnc2c1C(=O)Nc1cnccc1-c1ccc(C(=O)N2CCN3CCC2CC3)cc1 [I-C-48, N-(4-(4-(1,4-diazabicyclo[3.2.2]nonane-4-carbonyl)phenyl)pyridin-3-yl)-2-amino-6-fluoropyrazolo[1,5-a]pyrimidine-3-carboxamide]

Continued, molecule first:

SMILES	Ki [1] [nM]	Ki [nM]
CN1CCC(OC2CCN(c3ccncc3NC(=O)c3c(N)nn4cc(F)cnc34)CC2)CC1 [I-N-154, 2-amino-6-fluoro-N-(4-(4-((1-methylpiperidin-4-yl)oxy)piperidin-1-yl)pyridin-3-yl)pyrazolo[1,5-a]pyrimidine-3-carboxamide]	10 to 1000	
Nc1nn2cc(F)cnc2c1C(=O)Nc1cncc(F)c1N1CCC(CN2CCCC2=O)CC1 [I-N-213, 2-amino-6-fluoro-N-(5-fluoro-4-(4-((2-oxopyrrolidin-1-yl)methyl)piperidin-1-yl)pyridin-3-yl)pyrazolo[1,5-a]pyrimidine-3-carboxamide]	10 to 1000	
CC(C)N1CCC(C(=O)N2CCN(c3c(F)cncc3NC(=O)c3c(N)nn4cc(F)cnc34)CC2)C1 (centres unmarked) [I-N-206, 2-amino-6-fluoro-N-(5-fluoro-4-(4-(1-isopropylpyrrolidine-3-carbonyl)piperazin-1-yl)pyridin-3-yl)pyrazolo[1,5-a]pyrimidine-3-carboxamide]	10 to 1000	
Cc1ccncc1NC(=O)c1c(N)nn2cc(CC#N)cnc12 [I-C-3, 2-amino-6-(cyanomethyl)-N-(4-methylpyridin-3-yl)pyrazolo[1,5-a]pyrimidine-3-carboxamide]	10 to 1000	
CC(C)N1CCN(c2ccncc2NC(=O)c2c(N)nn3cc(Cl)cnc23)CC1 [I-N-39, 2-amino-6-chloro-N-(4-(4-isopropylpiperazin-1-yl)pyridin-3-yl)pyrazolo[1,5-a]pyrimidine-3-carboxamide]	10 to 1000	
CN1CCC(S(=O)(=O)N2CCN(c3c(F)cncc3NC(=O)c3c(N)nn4cc(F)cnc34)CC2)CC1 [I-N-175, 2-amino-6-fluoro-N-(5-fluoro-4-(4-((1-methylpiperidin-4-yl)sulfonyl)piperazin-1-yl)pyridin-3-yl)pyrazolo[1,5-a]pyrimidine-3-carboxamide]	10 to 1000	
CN1CC(OC2CCN(c3ccncc3NC(=O)c3c(N)nn4cc(F)cnc34)CC2)C1 [I-N-164, 2-amino-6-fluoro-N-(4-(4-((1-methylazetidin-3-yl)oxy)piperidin-1-yl)pyridin-3-yl)pyrazolo[1,5-a]pyrimidine-3-carboxamide]	10 to 1000	
C[C@H]1CN(C2COC2)CCN1c1ccncc1NC(=O)c1c(N)nn2cc(F)cnc12 [I-N-24, (S)-2-amino-6-fluoro-N-(4-(2-methyl-4-(oxetan-3-yl)piperazin-1-yl)pyridin-3-yl)pyrazolo[1,5-a]pyrimidine-3-carboxamide]	10 to 1000	
Nc1nn2cc(F)cnc2c1C(=O)Nc1cnccc1N1CCN(C2CCOCC2)CC1 [I-N-11, 2-amino-6-fluoro-N-(4-(4-(tetrahydro-2H-pyran-4-yl)piperazin-1-yl)pyridin-3-yl)pyrazolo[1,5-a]pyrimidine-3-carboxamide]	10 to 1000	
N#CCc1cnc2c(C(=O)Nc3cnccc3N3CCOC(CN)C3)c(N)nn2c1 (centres unmarked) [I-N-90, 2-amino-N-(4-(2-(aminomethyl)morpholino)pyridin-3-yl)-6-(cyanomethyl)pyrazolo[1,5-a]pyrimidine-3-carboxamide]	10 to 1000	
Cc1ncnn1-c1ccncc1NC(=O)c1c(N)nn2cc(F)cnc12 [I-N-162, 2-amino-6-fluoro-N-(4-(5-methyl-1H-1,2,4-triazol-1-yl)pyridin-3-yl)pyrazolo[1,5-a]pyrimidine-3-carboxamide]	10 to 1000	
Cc1nnc(N2CCN(c3ccncc3NC(=O)c3c(N)nn4cc(F)cnc34)CC2)o1 [I-N-256, 2-amino-6-fluoro-N-(4-(4-(5-methyl-1,3,4-oxadiazol-2-yl)piperazin-1-yl)pyridin-3-yl)pyrazolo[1,5-a]pyrimidine-3-carboxamide]	10 to 1000	
CN1C[C@@H]2CCN(c3ccncc3NC(=O)c3c(N)nn4cc(F)cnc34)C[C@@H]2C1=O [I-N-224, 2-amino-6-fluoro-N-(4-((3aR,7aR)-2-methyl-3-oxohexahydro-1H-pyrrolo[3,4-c]pyridin-5(6H)-yl)pyridin-3-yl)pyrazolo[1,5-a]pyrimidine-3-carboxamide]	10 to 1000	
Cc1nc(C(F)(F)F)cn1-c1ccncc1NC(=O)c1c(N)nn2cc(F)cnc12 [I-N-30, 2-amino-6-fluoro-N-(4-(2-methyl-4-(trifluoromethyl)-1H-imidazol-1-yl)pyridin-3-yl)pyrazolo[1,5-a]pyrimidine-3-carboxamide]	10 to 1000	
CO[C@@H]1CCN(C(=O)C2CCN(c3ccncc3NC(=O)c3c(N)nn4cc(F)cnc34)CC2)C1 [I-G-93, (R)-2-amino-6-fluoro-N-(4-(4-(3-methoxypyrrolidine-1-carbonyl)piperidin-1-yl)pyridin-3-yl)pyrazolo[1,5-a]pyrimidine-3-carboxamide]	10 to 1000	
CN1CCCCC1C(=O)N1CCN(c2c(F)cncc2NC(=O)c2c(N)nn3cc(F)cnc23)CC1 (centres unmarked) [I-N-214, 2-amino-6-fluoro-N-(5-fluoro-4-(4-(1-methylpiperidine-2-carbonyl)piperazin-1-yl)pyridin-3-yl)pyrazolo[1,5-a]pyrimidine-3-carboxamide]	10 to 1000	
Nc1nn2cc(F)cnc2c1C(=O)Nc1cncc(F)c1N1CCN2CCOC[C@H]2C1 [I-N-135, (R)-2-amino-6-fluoro-N-(5-fluoro-4-(hexahydropyrazino[2,1-c][1,4]oxazin-8(1H)-yl)pyridin-3-yl)pyrazolo[1,5-a]pyrimidine-3-carboxamide]	10 to 1000	
Nc1nn2cc(F)cnc2c1C(=O)Nc1cnccc1CN1CCCC1=O [I-C-76, 2-amino-6-fluoro-N-(4-((2-oxopyrrolidin-1-yl)methyl)pyridin-3-yl)pyrazolo[1,5-a]pyrimidine-3-carboxamide]		1000 to 5000
